Read-outs that look alike come from different tables or passages of the source.
Columns and labels:
E. coli MetAP = E. coli MetAP (Escherichia coli, UniProt P0AE18); test: MetAP inhibitory activity, Met-Gly-Met-Met substrate, HPLC detection of Gly-Met-Met; format: biochemical; conditions: for inhibition at 25 µM: read-out: E. Coli % inhibition; for E. Coli % inhibition: single concentration: inhibitor 25 µM, enzyme 50 nM, 20 minutes substrate incubation at 37 °C
Procedure: (§1) The below protocol describes the measurement of the inhibitory activity of the compounds of the present invention by using E. coli MetAP, hsMetAP-I, and hsMetAP-II.
(§2) Inhibition activity of compounds was studied using the tetrapeptide substrate Met-Gly-Met-Met (Bachem) followed by HPLC analysis of the product Gly-Met-Met. The assay was performed in 96 well plates (Greiner) at a total reaction volume of 100 µl. […] A positive control with DMSO solution instead of inhibitor at the corresponding concentration was prepared. Then the substrate Met-Gly-Met-Met was added to a final concentration of 400 µM. After an incubation period of 15 minutes (HsMetAP-I), 20 minutes (EcMetAP) or 60 minutes (HsMetAP-II) at 37 °C, the enzyme reaction was stopped by adding 10 µl 4 % trifluoroacetic acid. The plate was centrifuged at 1000 x g for 10 minutes.
(§3) Detection of the product Gly-Met-Met was performed by HPLC (Jasco), and typically using the following, or equivalent conditions: C18 column (Dr. Maisch, ReproSil-Pur® 120 ODS-3, 3 µm, 50 x 2 mm). 80 µl of sample were applied on the column and eluted with mobile phase A (water and 0.1 % trifluoroacetic acid, filtered, degassed) and B (acetonitrile and 0.1 % trifluoroacetic acid, degassed) over 8 minutes.
(§4) Percentage inhibition was calculated as the relation of Gly-Met-Met amount resulting in inhibited and uninhibited enzyme reaction (positive control). […] The values were determined in relation to positive controls with equal DMSO contents. The inhibition values for the varying concentrations of inhibitor were then fitted to a logarithmic dose-response curve and the IC50 values were calculated from the equation thus obtained.

hsMetAP-I = hsMetAP-I (Homo sapiens, UniProt P53582); test: as above; format: biochemical, hs; conditions: for inhibition at 25 µM: read-out: hsMetAP-I % inhibition
Procedure: as §1, §2, §3, §4

hsMetAP-II = hsMetAP-II (Homo sapiens, UniProt P50579); test: as above; format: biochemical, hs
hsMetAP-II, sequence (P50579 whole entry): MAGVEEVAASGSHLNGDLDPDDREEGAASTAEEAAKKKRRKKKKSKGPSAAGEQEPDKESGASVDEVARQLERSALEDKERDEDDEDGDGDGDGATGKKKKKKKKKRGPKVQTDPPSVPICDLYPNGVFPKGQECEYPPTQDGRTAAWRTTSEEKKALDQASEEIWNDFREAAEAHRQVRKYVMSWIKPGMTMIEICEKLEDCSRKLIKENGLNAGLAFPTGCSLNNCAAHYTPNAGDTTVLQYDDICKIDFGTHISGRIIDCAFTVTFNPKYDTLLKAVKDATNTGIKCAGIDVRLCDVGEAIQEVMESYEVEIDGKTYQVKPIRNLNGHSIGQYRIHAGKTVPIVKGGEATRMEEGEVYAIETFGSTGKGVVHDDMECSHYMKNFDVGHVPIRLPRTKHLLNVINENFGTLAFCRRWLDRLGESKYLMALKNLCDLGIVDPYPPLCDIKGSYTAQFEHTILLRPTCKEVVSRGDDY
Procedure: as §1
Inhibition activity of compounds was studied using the tetrapeptide substrate Met-Gly-Met-Met (Bachem) followed by HPLC analysis of the product Gly-Met-Met. The assay was performed in 96 well plates (Greiner) at a total reaction volume of 100 µl. […] Then the substrate Met-Gly-Met-Met was added to a final concentration of 400 µM. After an incubation period of 15 minutes (HsMetAP-I), 20 minutes (EcMetAP) or 60 minutes (HsMetAP-II) at 37 °C, the enzyme reaction was stopped by adding 10 µl 4 % trifluoroacetic acid. The plate was centrifuged at 1000 x g for 10 minutes.
as §3, §4

[1] = test system: human umbilical vein endothelial cells (HUVEC); test: HUVEC growth arrest, crystal violet staining; format: cell-based; conditions: Homo sapiens, HUVEC, 240 h, growth over 10 days, 0-100 µM, OD at 595 nm; read-out: HUVEC IC50
Description: For the measurement of the HUVEC growth arrest (Example 19) and the used materials and equipment were:
• Cells: Primary human umbilical vein cells (HUVEC) were obtained from GIBCO (Cat. C-015-5C). • Cell culture medium: Medium 200 supplemented with LSGS (Gibco, Cat. M-200-500). • Trypsin/EDTA (Gibco, Cat R-001-100) • Trypsin Neutralizer solution (Gibco, Cat R-002-100). • Crystal violet (Merck / Cat. no. 1408) • Ethanol (Riedel-de-Haen / Cat. no. 32205) • Acetic acid (Riedel-de-Haen / Cat. no. 33209) • Culture flasks: Coming, 430168 • 96 well plates: Greiner, 655 101
• Microtiter pipettes: •Brand Transferpette-8, • Gilson Pipetman 20 and 200 Laminar air flow cabinet: Gelman, Celaire • ELISA reader: Thermo, Multiskan Ascent • Microscope: Leitz Diavert • Balance: Sartorius RC 210 D • CO2 incubator: Heraeus CO2-Auto-Zero • Centrifuge: Heraeus Biofuge primo • Cell counter: Assistent, Neubauer hematocytometer
Crystal violet solution: • Crystal violet (Merck) was dissolved in ethanol (PA quality, Roth) to a concentration of 10 %. The solution was diluted with ddH2O 1:20.
Test compounds: • Compounds of the present invention were dissolved at a concentration of 10 mM in DMSO (Roth, Cat. 47201). Stock solutions of test compounds were diluted 1:10 not earlier than 1 hour before the assay was made.
• 1. HUVEC cells were seeded in 96-well plates ([…]). • 2. 6 hours later test compounds were added in triplicates Concentrations of test compound: 0, 1.6, 3.2, 6.3, 12.5, 25, 50, 100 µM. Fresh medium and test compounds were added every 48 hr. • 3. One 96 well plate (t=0) with untreated cells was fixed at the same time point as treatment of cells with test compounds was initiated. • 4. Test plates were incubated for 10 days in a CO2 incubator. • 5. Fixation of cells: Wells were washed with 100 µL/well PBS. PBS was decanted and 100 µL of 3 % formaldehyde/well was added. After 5 min, formaldehyde was decanted and plates were dried upside down on blotting paper overnight at room temperature. • 6. Staining: 0.1 mL of crystal violet solution was added to each well with a 12-channel pipette. After incubation for 5 min at room temperature, the crystal violet solution was decanted and plates were washed 5 x by submersion in 3 L fresh water. • 7. After drying (plates were dried on blotting paper upside down overnight) 0.1 mL of ethanol/acetic acid (99:1) was added to each well and the optical density at 595 nm was determined in an ELISA reader.
The evaluation of the growth inhibitory activity was carried out as follows: • Definitions: Growth: Mean OD at t=10 d - mean OD at t=0. • Evaluation: Dose response curves were established by plotting growth against concentration of compounds using Microsoft Excel.

[2] = single concentration: inhibitor 25 µM, enzyme 50 nM, 15 minutes substrate incubation at 37 °C
[3] = hsMetAP-II IC50, enzyme 50 nM, 400 µM Met-Gly-Met-Met, 60 minutes at 37 °C
[4] = read-out: hsMetAP-II % inhibition, single concentration: inhibitor 25 µM, enzyme 50 nM, 60 minutes substrate incubation at 37 °C
[5] = enzyme 50 nM, 400 µM Met-Gly-Met-Met, 60 minutes at 37 °C, read-out: hsMetAP-II IC50
[6] = single concentration: inhibitor 25 µM, enzyme 50 nM, 60 minutes substrate incubation at 37 °C, read-out: hsMetAP-II % inhibition
[7] = single concentration: inhibitor 25 µM, enzyme 50 nM, 60 minutes substrate incubation at 37 °C

E. coli MetAP, sequence (P0AE18 whole entry): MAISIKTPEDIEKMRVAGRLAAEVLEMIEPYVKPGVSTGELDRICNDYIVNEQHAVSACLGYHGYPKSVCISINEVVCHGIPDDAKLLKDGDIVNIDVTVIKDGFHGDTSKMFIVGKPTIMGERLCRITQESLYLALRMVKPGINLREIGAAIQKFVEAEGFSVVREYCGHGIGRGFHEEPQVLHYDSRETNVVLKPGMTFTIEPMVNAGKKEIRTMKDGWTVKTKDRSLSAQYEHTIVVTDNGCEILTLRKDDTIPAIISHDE

SMILES	inhibition at 25 µM (E. coli MetAP) [%]	hsMetAP-I % inhibition (hsMetAP-I; [2])	inhibition at 25 µM (hsMetAP-II; [4]) [%]	E. Coli % inhibition (E. coli MetAP)	inhibition at 25 µM (hsMetAP-II; [6]) [%]	other results
COc1ccc(Cn2nnc3c2C2(CCC3OC(=O)NCC(N)=O)CO2)cc1 (stereo not drawn) [UWU-XII-143-A]	12 ± 1	Inactive	100	–	–	IC50 (hsMetAP-II; [3]): 230 ± 20 nM; IC50 [1]: 2600 nM
O=C1CCC2(CO2)c2c1nnn2Cc1ccc(C(F)(F)F)cc1 (stereo not drawn) [BK-I-161-A]	–	Inactive	–	Inactive	100	inhibitory effect on MetAP-II (in words) (hsMetAP-II): good inhibitory effect; IC50 (hsMetAP-II; [5]): 520 ± 50 nM; IC50 [1]: 900 nM
CC(C)Cn1cnc2c1C1(CCC2=O)CO1 (stereo not drawn) [JL-II-120-B]	–	Inactive	–	Inactive	12 ± 6	–
CCCCCCCCn1nnc2c1C1(CCC2=O)CO1 (stereo not drawn) [CJ-II-010]	14 ± 7	–	–	–	50 ± 2	inhibition at 25 µM (hsMetAP-I; [2]): 12.1 ± 1.5%
COc1ccc(Cn2nnc3c2C2(CCC3OC(=O)C=Cc3cc(OC)c(OC)c(OC)c3)CO2)cc1 (racemic) [UWU-XII-035-A]	–	Inactive	94 ± 4	Inactive	–	inhibitory effect on MetAP-II (in words) (hsMetAP-II): good inhibitory effect; IC50 (hsMetAP-II; read-out: hsMetAP-II IC50, enzyme 50 nM, 400 µM Met-Gly-Met-Met, 60 minutes at 37 °C): 500 ± 1000 nM
O=C(O[C@@H]1CC[C@@]2(CO2)c2c1nnn2Cc1ccccc1)c1ccccc1 (racemic) [JL-III-147-B]	36 ± 11	Inactive	59 ± 2	–	–	IC50 (hsMetAP-II): 19100 ± 9000 nM
Cn1nnc2c1C1(CCC2=O)CO1 (racemic) [CJ-II-011]	20 ± 2	–	–	–	–	inhibition at 25 µM (hsMetAP-I; [2]): 14 ± 7%; hsMetAP-II % inhibition (hsMetAP-II; [7]): Inactive
COc1ccc(Cn2nnc3c2[C@@]2(CC[C@@H]3OC(=O)NC(C)C)CO2)cc1 [(-)-UWU-XII-131-A]	–	Inactive	–	Inactive	–	IC50 [1]: 8200 nM
CC(C)NC(=O)O[C@@H]1CC[C@@]2(CO2)c2c1nnn2Cc1ccccc1 (racemic) [UWU-XII-128-C]	18 ± 2	Inactive	60 ± 5	–	–	IC50 (hsMetAP-II; [3]): 18000 ± 9000 nM; IC50 [1]: 9500 nM
Cc1ccccc1Cn1nnc2c1C1(CCC2=O)CO1 (stereo not drawn) [BK-I-181-B]	–	Inactive	–	Inactive	100	IC50 (hsMetAP-II; [5]): 5100 ± 2900 nM
CCCn1cnc2c1C1(CCC2=O)CO1 (racemic) [JL-II-116-A]	–	Inactive	–	Inactive	–	hsMetAP-II % inhibition (hsMetAP-II; [7]): Inactive
COc1ccc(Cn2nnc3c2[C@]2(CC[C@H]3OC(=O)NC(C)C)CO2)cc1 (racemic) [UWU-XII-131-A]	–	Inactive	–	Inactive	–	IC50 [1]: 400 nM
O=C1CCC2(CO2)c2c1ncn2Cc1ccccc1 (stereo not drawn) [JL-III-084-C]	–	Inactive	–	Inactive	24 ± 1	–
COc1ccc(Cn2nnc3c2[C@@]2(CC[C@H]3OC(=O)/C=C/c3cc(OC)c(OC)c(OC)c3)CO2)cc1 (racemic) [UWU-II-035-C]	–	Inactive	85 ± 11	Inactive	–	IC50 (hsMetAP-II): 2020 ± 30 nM
O=C(O[C@@H]1CC[C@]2(CO2)c2c1nnn2Cc1ccc2ccccc2c1)c1ccccc1 (racemic) [JL-III-132-C]	22 ± 7	Inactive	63 ± 5	–	–	IC50 (hsMetAP-II): 3700 ± 300 nM
O=C(O[C@@H]1CC[C@@]2(CO2)c2c1nnn2Cc1ccc2ccccc2c1)c1ccccc1 [JL-III-132-D]	–	Inactive	–	Inactive	15 ± 5	–
CCn1cnc2c1C1(CCC2=O)CO1 (stereo not drawn) [JL-II-137-A]	–	Inactive	–	Inactive	–	hsMetAP-II % inhibition (hsMetAP-II; [7]): Inactive
O=C1CCC2(CO2)c2c1nnn2Cc1ccc2ccccc2c1 (stereo not drawn) [HHS-I-020-C]	24 ± 8	Inactive	–	–	84.1 ± 3.2	IC50 (hsMetAP-II; [5]): 2700 ± 100 nM
O=C(O[C@@H]1CC[C@]2(CO2)c2c1nnn2Cc1ccccc1)c1ccccc1 (racemic) [JL-III-147-A]	45 ± 7	–	93.3 ± 2.1	–	–	inhibition at 25 µM (hsMetAP-I): 15 ± 1%; IC50 (hsMetAP-II): 1300 ± 10 nM
CC(C)c1ccc(Cn2nnc3c2C2(CCC3=O)CO2)cc1 (stereo not drawn) [JL-III-138-A]	50 ± 6	–	–	–	84 ± 3	inhibition at 25 µM (hsMetAP-I; [2]): 16 ± 2%; IC50 (hsMetAP-II; [5]): 5500 ± 3000 nM
Cn1cnc2c1C1(CCC2=O)CO1 (racemic) [JL-II-136-A]	–	Inactive	–	Inactive	–	hsMetAP-II % inhibition (hsMetAP-II; [7]): Inactive
O=C1CCC2(CO2)c2c1nnn2Cc1ccccc1 (stereo not drawn) [HHS-I-027-B]	–	Inactive	–	Inactive	64.5 ± 0.1	IC50 (hsMetAP-II; [5]): 13700 ± 3400 nM
CC(C)c1ccc(Cn2nnc3c2[C@]2(CC[C@H]3OC(=O)c3ccccc3)CO2)cc1 (racemic) [UWU-XII-036-A]	20 ± 8	Inactive	59 ± 5	–	–	IC50 (hsMetAP-II): 4700 ± 300 nM
COc1ccc(Cn2nnc3c2[C@@]2(CC[C@H]3OC(=O)NC(C)C)CO2)cc1 (racemic) [UWU-XII-131-C]	–	Inactive	–	Inactive	–	IC50 [1]: 2500 nM
CC(C)CCn1cnc2c1C1(CCC2=O)CO1 (stereo not drawn) [JL-II-115-A]	25 ± 8	Inactive	–	–	–	hsMetAP-II % inhibition (hsMetAP-II; [7]): Inactive
CCn1nnc2c1C1(CCC2=O)CO1 (stereo not drawn) [CJ-II-007]	22 ± 5	Inactive	–	–	–	hsMetAP-II % inhibition (hsMetAP-II; [7]): Inactive

Reference: patent EP2711367A1, “New spiroepoxide tetrahydrobenzo-triazoles and -imidazoles and their use as MetAP-II inhibitors” (Deutsches Krebsforschungszentrum, priority 2012, dated 2014)
